Reference: publication PMC4604124, “In Vitro Characterization of the Pharmacological Properties of the Anti-Cancer Chelator, Bp4eT, and Its Phase I Metabolites” (PLoS ONE, 2015)
Several values for one entry are separate records, joined by “and”; a condition that tells them apart may be missing. Equal values may be shown once. Read-outs that look alike come from different tables or passages of the source.

Legend:
[1] = Viability (viabilita) used to normalise caspase activity; format: cell-based, human; conditions: human, MCF-7 cells, kontrola = 100;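 further: compound tested at 100 nM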
Text: Supplement pone.0139929.s002.zip/caspases activity.xlsx, sheet "results_viability"

[2] = tested on: caspase 9; assay: Caspase activity, luminescent kit, caspase 9; format: cell-based, human; conditions: for kaspáza 9, raw signal / kaspáza 9, signal / viabilita: individual experiments by date; for kaspáza 9, raw signal, průměry / kaspáza 9, % kontroly / kaspáza 9, signal / viabilita, průměry: mean; for kaspáza 9, % kontroly / kaspáza 9, signal / viabilita / kaspáza 9, signal / viabilita, průměry: normalised to viability;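 on all read-outs here: MCF-7 cells treated at 100 nM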
[3] = tested on: HL-60 human promyelocytic leukemia cells; assay: MTT cytotoxicity assay, HL-60 cells; format: cell-based; conditions: for IC50: MTT, read-out: IC50
Method in brief: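 HL-60 cells were plated in 96-well plates at 10,000 cells/well and grown for 24 h/37°C before the test agents were added. Cells were then exposed for 72 h/37°C in medium containing 0.1% DMSO (v/v). Viability was assessed by MTT, reading absorbance at λ = 570 nm minus the λ = 690 nm background, and expressed as percent of untreated controls.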

[4] = tested on: A549 human lung adenocarcinoma cells; assay: MTT cytotoxicity assay, A549 cells; format: cell-based; conditions: for MTT, relative to control (0 = 100): A549, 2 000 b/j, sheet Z-Bp4eS
Method in brief: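 72 h/37°C exposure, 0.1% DMSO. Plating: MCF-7 5,000; HCT116, A549 2,000; H9c2 10,000 cells/well, H9c2 switched to serum/pyruvate-free DMEM 24 h. MTT OD 570 nm, 690 nm background subtracted. Viability as % untreated control; IC50 derived.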

## CCNC(=O)NN=C(c1ccccc1)c1ccccn1 [Z-Bp4eS, 2-benzoylpyridine 4-ethylsemicarbazone]
[1]; 3 hodiny
  viability at 3 h, 100 nM: 97.4%
[1]; 24 hodin
  viability at 24 h, 100 nM: 99.5%
[1]; 72 hodin
  viability at 72 h, 100 nM: 93.5%
[2]; 3 hodiny
  kaspáza 9, raw signal: 6118 and 2344.5 and 3460 and 2039.5
  kaspáza 9, raw signal, průměry: 3490.5
  kaspáza 9, % kontroly: 100.62 % kontroly
  kaspáza 9, signal / viabilita: 62.8087 and 24.0691 and 35.5211 and 20.938
  kaspáza 9, signal / viabilita, průměry: 35.8342
[2]; 24 hodin
  kaspáza 9, raw signal: 4532 and 2581 and 5427.5 and 4043
  kaspáza 9, raw signal, průměry: 4145.88
  kaspáza 9, % kontroly: 101.82 % kontroly
  kaspáza 9, signal / viabilita: 45.5674 and 25.9509 and 54.5713 and 40.6507
  kaspáza 9, signal / viabilita, průměry: 41.6851
[2]; 72 hodin
  kaspáza 9, raw signal: 21491.5 and 17542 and 23160 and 18381
  kaspáza 9, raw signal, průměry: 20143.6
  kaspáza 9, % kontroly: 100.13 % kontroly
  kaspáza 9, signal / viabilita: 229.757 and 187.535 and 247.595 and 196.504
  kaspáza 9, signal / viabilita, průměry: 215.348
[3]; 3T3/HL-60
  Therapeutic index, IC50 non-cancerous cells / IC50 neoplastic cells: >21.6
[3]; H9c2/HL-60
  Therapeutic index, IC50 non-cancerous cells / IC50 neoplastic cells: 7.4
[3]; HL-60, 72 h/37°C, mean ± SD, n ≥ 4
  IC50: 46.2 ± 1.5 µM
[3]; HL-60, 10 000 b/j, 3 μM, průměr (mean), sheet Z-Bp4eS
  MTT, relative to control (0 = 100): 96.55
[3]; HL-60, 10 000 b/j, 3 μM, single experiment (date), sheet Z-Bp4eS
  MTT, relative to control (0 = 100): 99.8024 and 101.089 and 96.0475 and 94.6794 and 91.1123
[3]; HL-60, 10 000 b/j, 10 μM, průměr (mean), sheet Z-Bp4eS
  MTT, relative to control (0 = 100): 98.03
[3]; HL-60, 10 000 b/j, 10 μM, single experiment (date), sheet Z-Bp4eS
  MTT, relative to control (0 = 100): 97.8586 and 97.7431 and 101.779 and 97.3762 and 95.3935
[3]; HL-60, 10 000 b/j, 30 μM, průměr (mean), sheet Z-Bp4eS
  MTT, relative to control (0 = 100): 90.77
[3]; HL-60, 10 000 b/j, 30 μM, single experiment (date), sheet Z-Bp4eS
  MTT, relative to control (0 = 100): 95.7321 and 90.5946 and 90.8492 and 85.9082
[3]; HL-60, 10 000 b/j, 40 μM, průměr (mean), sheet Z-Bp4eS
  MTT, relative to control (0 = 100): 82.14
[3]; HL-60, 10 000 b/j, 40 μM, single experiment (date), sheet Z-Bp4eS
  MTT, relative to control (0 = 100): 82.3316 and 84.0304 and 91.7648 and 77.576 and 75.0054
[3]; HL-60, 10 000 b/j, 50 μM, průměr (mean), sheet Z-Bp4eS
  MTT, relative to control (0 = 100): 40.92
[3]; HL-60, 10 000 b/j, 50 μM, single experiment (date), sheet Z-Bp4eS
  MTT, relative to control (0 = 100): 42.5442 and 42.5088 and 37.382 and 41.2548
[3]; HL-60, 10 000 b/j, 80 μM, průměr (mean), sheet Z-Bp4eS
  MTT, relative to control (0 = 100): 2.08
[3]; HL-60, 10 000 b/j, 100 μM, průměr (mean), sheet Z-Bp4eS
  MTT, relative to control (0 = 100): 2.48
[3]; HL-60, 10 000 b/j, 300 μM, průměr (mean), sheet Z-Bp4eS
  MTT, relative to control (0 = 100): 2.72
[3]; HL-60, 10 000 b/j, 300 μM, single experiment (date), sheet Z-Bp4eS
  MTT, relative to control (0 = 100): 3.195 and 2.8028 and 2.136 and 2.734
[3]; HL-60, 10 000 b/j, single experiment (date), sheet Z-Bp4eS
  IC50: 46.2 µM and 48.3 µM and 45.5 µM
[3]; Homo sapiens, HL-60, HL-60, 10 000 b/j, průměr (mean), sheet Z-Bp4eS
  IC50: 46.2 µM
[3]; Homo sapiens, HL-60, HL-60, 10 000 b/j, single experiment (date), sheet Z-Bp4eS
  IC50: 44.9 µM
[4]; 3T3/A549
  Therapeutic index, IC50 non-cancerous cells / IC50 neoplastic cells: >1.9
[4]; A549, 72 h/37°C, MTT, mean ± SD, n ≥ 4
  IC50: 536 ± 147 µM
[4]; 1 μM, průměr (mean)
  MTT, relative to control (0 = 100): 94.73
[4]; 1 μM, single experiment (date)
  MTT, relative to control (0 = 100): 96.1035 and 96.1124 and 90.1392 and 98.3089 and 94.9198 and 92.7894
[4]; 3 μM, průměr (mean)
  MTT, relative to control (0 = 100): 94.38
[4]; 3 μM, single experiment (date)
  MTT, relative to control (0 = 100): 93.9771 and 96.8848 and 87.0494 and 97.8403 and 95.4397 and 95.0776
[4]; 10 μM, průměr (mean)
  MTT, relative to control (0 = 100): 94.55
[4]; 10 μM, single experiment (date)
  MTT, relative to control (0 = 100): 94.0202 and 95.9602 and 87.4767 and 100.017 and 95.1483 and 94.6861
